# According to ChEMBL document CHEMBL4330071 (Eur J Med Chem, 2019):
# Key:
# [1] = biological target: ALK tyrosine kinase receptor (Homo sapiens, UniProt Q9UM73); experiment: Inhibition of human ALK assessed as residual activity at 10 uM using poly[Glu:Tyr] (4:1) as substrate preincubated for 20 mins followed by [gamma-33P]-ATP addition and measured after 120 mins by Hotspot assay relative to control
# [2] = biological target: Aurora kinase A (Homo sapiens) (UniProt O14965); experiment: Inhibition of human Aurora A assessed as residual activity at 10 uM using [H-LRRASLG] as substrate preincubated for 20 mins followed by [gamma-33P]-ATP addition and measured after 120 mins by Hotspot assay relative to control
# Aurora kinase A (Homo sapiens), sequence (O14965 whole entry): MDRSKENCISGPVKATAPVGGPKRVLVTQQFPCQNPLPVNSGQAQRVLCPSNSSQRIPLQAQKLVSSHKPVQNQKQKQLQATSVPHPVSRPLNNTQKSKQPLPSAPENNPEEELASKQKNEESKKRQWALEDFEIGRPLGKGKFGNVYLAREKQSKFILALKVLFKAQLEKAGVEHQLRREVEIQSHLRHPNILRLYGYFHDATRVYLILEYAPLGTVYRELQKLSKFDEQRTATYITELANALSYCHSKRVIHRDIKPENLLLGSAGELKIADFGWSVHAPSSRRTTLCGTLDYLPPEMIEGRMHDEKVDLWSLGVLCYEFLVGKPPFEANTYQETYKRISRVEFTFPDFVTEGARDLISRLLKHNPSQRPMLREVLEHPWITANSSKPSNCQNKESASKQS
# [3] = biological target: Serine/threonine-protein kinase B-raf (Homo sapiens) (UniProt P15056); experiment: Inhibition of human BRAF assessed as residual activity at 10 uM using MEK1 (K97R) as substrate preincubated for 20 mins followed by [gamma-33P]-ATP addition and measured after 120 mins by Hotspot assay relative to control
# [4] = biological target: T1, Tyrosine-protein kinase BTK (Homo sapiens, UniProt Q06187); experiment: Inhibition of human BTK assessed as residual activity at 10 uM using KVEKIGEGTYGVVYK as substrate preincubated for 20 mins followed by [gamma-33P]-ATP addition and measured after 120 mins by Hotspot assay relative to control
# T1 sequence (Q06187 whole entry): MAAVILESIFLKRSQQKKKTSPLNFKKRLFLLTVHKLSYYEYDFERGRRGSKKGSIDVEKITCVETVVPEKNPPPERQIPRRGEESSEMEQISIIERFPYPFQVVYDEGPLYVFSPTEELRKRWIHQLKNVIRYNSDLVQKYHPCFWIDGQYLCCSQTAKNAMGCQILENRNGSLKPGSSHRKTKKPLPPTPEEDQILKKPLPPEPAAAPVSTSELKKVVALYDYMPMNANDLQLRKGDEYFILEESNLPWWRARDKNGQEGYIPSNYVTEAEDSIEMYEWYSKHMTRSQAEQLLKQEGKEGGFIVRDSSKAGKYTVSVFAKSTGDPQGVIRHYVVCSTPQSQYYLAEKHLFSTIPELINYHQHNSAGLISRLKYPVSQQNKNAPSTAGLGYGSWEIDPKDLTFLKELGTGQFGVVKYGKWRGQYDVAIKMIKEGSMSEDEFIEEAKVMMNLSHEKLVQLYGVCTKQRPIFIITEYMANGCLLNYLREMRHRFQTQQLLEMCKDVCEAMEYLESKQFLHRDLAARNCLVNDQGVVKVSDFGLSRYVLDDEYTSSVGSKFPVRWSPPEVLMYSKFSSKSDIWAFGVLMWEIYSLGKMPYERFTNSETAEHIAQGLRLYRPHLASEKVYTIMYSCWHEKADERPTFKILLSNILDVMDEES
# [5] = biological target: CDK6/cyclin D1 (Homo sapiens) (UniProt P24385+Q00534); experiment: Inhibition of human CDK6/cyclin-D1 assessed as residual activity at 10 uM using RB protein as substrate preincubated for 20 mins followed by [gamma-33P]-ATP addition and measured after 120 mins by Hotspot assay relative to control; assay type: protein-complex assay
# [6] = biological target: T2, Proto-oncogene tyrosine-protein kinase Src (Homo sapiens, UniProt P12931); experiment: Inhibition of human c-SRC assessed as residual activity at 10 uM using poly[Glu:Tyr] (4:1) as substrate preincubated for 20 mins followed by [gamma-33P]-ATP addition and measured after 120 mins by Hotspot assay relative to control
# T2 sequence (P12931 2-536 limits assumed): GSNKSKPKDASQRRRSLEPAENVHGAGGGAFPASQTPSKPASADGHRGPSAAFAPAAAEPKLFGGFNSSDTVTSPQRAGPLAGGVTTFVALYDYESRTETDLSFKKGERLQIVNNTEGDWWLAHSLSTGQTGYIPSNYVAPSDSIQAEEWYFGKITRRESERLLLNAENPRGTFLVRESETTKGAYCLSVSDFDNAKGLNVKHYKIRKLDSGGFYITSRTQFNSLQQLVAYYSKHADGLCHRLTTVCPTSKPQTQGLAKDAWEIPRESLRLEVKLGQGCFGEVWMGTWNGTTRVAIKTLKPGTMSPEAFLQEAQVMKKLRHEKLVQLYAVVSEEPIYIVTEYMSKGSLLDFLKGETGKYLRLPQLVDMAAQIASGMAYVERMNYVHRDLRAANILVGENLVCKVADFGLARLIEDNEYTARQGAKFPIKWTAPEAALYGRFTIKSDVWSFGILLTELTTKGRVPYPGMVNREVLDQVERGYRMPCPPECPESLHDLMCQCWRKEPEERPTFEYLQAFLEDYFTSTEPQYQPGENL
# [7] = biological target: Discoidin domain-containing receptor 2 (Homo sapiens) (UniProt Q16832); experiment: Inhibition of human DDR2 assessed as residual activity at 10 uM using KKSRGDYMTMQIG as substrate preincubated for 20 mins followed by [gamma-33P]-ATP addition and measured after 120 mins by Hotspot assay relative to control
# Discoidin domain-containing receptor 2 (Homo sapiens), sequence (Q16832 whole entry, the tested form may be a part): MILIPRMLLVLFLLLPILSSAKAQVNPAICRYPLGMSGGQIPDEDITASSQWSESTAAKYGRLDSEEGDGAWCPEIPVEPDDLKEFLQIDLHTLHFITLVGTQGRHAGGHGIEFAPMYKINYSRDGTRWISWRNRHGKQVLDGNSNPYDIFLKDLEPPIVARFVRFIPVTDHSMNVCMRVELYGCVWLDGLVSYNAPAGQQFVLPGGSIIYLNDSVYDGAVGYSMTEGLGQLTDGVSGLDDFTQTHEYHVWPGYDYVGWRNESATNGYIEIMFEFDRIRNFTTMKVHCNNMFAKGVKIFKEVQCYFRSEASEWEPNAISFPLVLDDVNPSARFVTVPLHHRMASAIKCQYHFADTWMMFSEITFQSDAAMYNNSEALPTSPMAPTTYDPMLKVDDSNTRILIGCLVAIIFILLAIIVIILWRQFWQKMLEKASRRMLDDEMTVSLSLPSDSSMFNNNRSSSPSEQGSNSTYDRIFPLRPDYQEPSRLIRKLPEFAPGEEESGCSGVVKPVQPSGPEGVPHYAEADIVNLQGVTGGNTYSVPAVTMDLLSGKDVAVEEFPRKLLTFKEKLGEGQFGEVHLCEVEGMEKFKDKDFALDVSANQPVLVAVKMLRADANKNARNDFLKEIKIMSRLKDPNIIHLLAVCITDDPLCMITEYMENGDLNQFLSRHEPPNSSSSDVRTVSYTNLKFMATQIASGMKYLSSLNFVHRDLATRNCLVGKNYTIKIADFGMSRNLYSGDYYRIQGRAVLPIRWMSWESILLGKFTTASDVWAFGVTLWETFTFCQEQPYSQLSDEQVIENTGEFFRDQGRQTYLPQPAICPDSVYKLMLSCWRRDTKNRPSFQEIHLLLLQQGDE
# [8] = biological target: Mitogen-activated protein kinase 3 (Homo sapiens) (UniProt P27361); experiment: Inhibition of human ERK1 assessed as residual activity at 10 uM using MBP as substrate preincubated for 20 mins followed by [gamma-33P]-ATP addition and measured after 120 mins by Hotspot assay relative to control
# Mitogen-activated protein kinase 3 (Homo sapiens), sequence (P27361 whole entry): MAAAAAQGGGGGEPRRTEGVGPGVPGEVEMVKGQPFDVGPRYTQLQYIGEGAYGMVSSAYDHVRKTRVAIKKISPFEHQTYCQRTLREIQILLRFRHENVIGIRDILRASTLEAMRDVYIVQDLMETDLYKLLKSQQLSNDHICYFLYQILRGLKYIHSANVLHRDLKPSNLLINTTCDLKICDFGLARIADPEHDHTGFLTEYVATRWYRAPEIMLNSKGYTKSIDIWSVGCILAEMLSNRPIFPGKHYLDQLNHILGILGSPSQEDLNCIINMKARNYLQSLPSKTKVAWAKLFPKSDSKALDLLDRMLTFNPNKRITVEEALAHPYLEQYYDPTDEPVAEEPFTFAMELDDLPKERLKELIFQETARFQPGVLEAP
# [9] = biological target: Insulin-like growth factor 1 receptor (Homo sapiens) (UniProt P08069); experiment: Inhibition of human IGF1R assessed as residual activity at 10 uM using KKKSPGEYVNIEFG as substrate preincubated for 20 mins followed by [gamma-33P]-ATP addition and measured after 120 mins by Hotspot assay relative to control
# [10] = biological target: Inhibitor of nuclear factor kappa-B kinase subunit alpha (Homo sapiens) (UniProt O15111); experiment: Inhibition of human IKKalpha assessed as residual activity at 10 uM using KKKKERLLDDRHDSGLDSMKDEE as substrate preincubated for 20 mins followed by [gamma-33P]-ATP addition and measured after 120 mins by Hotspot assay relative to control
# [11] = biological target: Mitogen-activated protein kinase kinase kinase 1 (Homo sapiens) (UniProt Q13233); experiment: Inhibition of human MEKK1 assessed as residual activity at 10 uM using MBP as substrate preincubated for 20 mins followed by [gamma-33P]-ATP addition and measured after 120 mins by Hotspot assay relative to control
# Mitogen-activated protein kinase kinase kinase 1 (Homo sapiens), sequence (Q13233 whole entry, the tested form may be a part): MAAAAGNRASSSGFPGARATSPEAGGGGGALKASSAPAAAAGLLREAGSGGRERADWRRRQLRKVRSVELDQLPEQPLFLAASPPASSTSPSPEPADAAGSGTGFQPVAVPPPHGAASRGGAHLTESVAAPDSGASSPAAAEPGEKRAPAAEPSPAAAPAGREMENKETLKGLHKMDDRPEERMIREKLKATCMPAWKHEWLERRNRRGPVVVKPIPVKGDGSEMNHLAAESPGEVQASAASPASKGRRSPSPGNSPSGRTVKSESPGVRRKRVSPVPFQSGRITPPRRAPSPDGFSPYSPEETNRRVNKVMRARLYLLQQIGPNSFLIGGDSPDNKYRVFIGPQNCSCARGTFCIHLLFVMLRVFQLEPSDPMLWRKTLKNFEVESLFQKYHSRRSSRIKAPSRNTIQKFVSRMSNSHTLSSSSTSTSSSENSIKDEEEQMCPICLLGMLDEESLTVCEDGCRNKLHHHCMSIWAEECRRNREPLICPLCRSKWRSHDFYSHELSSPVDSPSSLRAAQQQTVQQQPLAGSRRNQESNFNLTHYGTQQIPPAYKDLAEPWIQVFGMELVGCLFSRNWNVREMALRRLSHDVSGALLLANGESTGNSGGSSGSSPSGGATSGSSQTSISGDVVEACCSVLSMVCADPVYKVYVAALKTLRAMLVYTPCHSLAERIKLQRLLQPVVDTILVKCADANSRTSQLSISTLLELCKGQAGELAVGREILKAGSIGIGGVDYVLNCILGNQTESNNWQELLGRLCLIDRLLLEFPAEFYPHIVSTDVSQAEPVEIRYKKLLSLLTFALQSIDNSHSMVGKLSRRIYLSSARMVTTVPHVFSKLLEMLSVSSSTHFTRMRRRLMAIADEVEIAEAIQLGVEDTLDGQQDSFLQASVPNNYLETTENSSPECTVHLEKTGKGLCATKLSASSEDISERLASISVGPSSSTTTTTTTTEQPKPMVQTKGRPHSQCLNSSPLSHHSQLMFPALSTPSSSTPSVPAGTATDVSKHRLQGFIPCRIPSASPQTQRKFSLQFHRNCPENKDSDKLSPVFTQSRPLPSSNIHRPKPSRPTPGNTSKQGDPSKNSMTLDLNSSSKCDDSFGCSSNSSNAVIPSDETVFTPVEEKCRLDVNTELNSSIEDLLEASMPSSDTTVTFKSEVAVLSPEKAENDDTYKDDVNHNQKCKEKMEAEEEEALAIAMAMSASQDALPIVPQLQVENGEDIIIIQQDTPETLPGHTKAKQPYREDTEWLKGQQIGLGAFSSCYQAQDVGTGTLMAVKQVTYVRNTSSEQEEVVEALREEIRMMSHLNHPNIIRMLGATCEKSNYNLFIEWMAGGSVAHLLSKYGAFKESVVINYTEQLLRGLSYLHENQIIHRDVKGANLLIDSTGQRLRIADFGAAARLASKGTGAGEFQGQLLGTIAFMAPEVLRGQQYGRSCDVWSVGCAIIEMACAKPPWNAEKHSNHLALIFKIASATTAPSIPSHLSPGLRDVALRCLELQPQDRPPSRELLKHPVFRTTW
# [12] = biological target: Tyrosine-protein kinase ABL1 (Homo sapiens, UniProt P00519, T315I); experiment: Binding affinity to human non-phosphorylated ABL1 T315I mutant (S229 to K512 residues) expressed in mammalian expression system after 60 mins by Kinomescan method
# [13] = biological target: Mast/stem cell growth factor receptor Kit (Homo sapiens, UniProt P10721); experiment: Binding affinity to wild-type human partial length KIT (I571 to D952 residues) expressed in bacterial expression system after 60 mins by Kinomescan method
# [14] = biological target: Tyrosine-protein kinase Lck (Homo sapiens, UniProt P06239); experiment: Inhibition of human LCK using poly[Glu:Tyr] (4:1) as substrate preincubated for 20 mins followed by [gamma-33P]-ATP addition and measured after 120 mins by Hotspot assay
# Tyrosine-protein kinase Lck, sequence (P06239 whole entry): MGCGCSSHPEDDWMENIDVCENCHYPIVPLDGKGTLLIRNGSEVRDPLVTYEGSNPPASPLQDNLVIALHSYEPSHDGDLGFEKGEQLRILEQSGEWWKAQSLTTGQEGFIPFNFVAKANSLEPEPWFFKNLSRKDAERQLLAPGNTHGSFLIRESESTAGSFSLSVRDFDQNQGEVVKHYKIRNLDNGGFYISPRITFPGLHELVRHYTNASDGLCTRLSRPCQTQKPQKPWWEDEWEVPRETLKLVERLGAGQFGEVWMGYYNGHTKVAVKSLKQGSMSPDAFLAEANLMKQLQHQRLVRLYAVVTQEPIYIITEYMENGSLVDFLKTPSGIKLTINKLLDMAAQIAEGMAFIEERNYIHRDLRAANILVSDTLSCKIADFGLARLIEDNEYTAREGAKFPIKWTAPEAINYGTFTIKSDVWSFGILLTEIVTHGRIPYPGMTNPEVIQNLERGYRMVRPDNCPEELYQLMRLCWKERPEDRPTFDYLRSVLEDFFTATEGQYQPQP
# [15] = biological target: T1, Tyrosine-protein kinase BTK; experiment: Inhibition of human BTK using KVEKIGEGTYGVVYK as substrate preincubated for 20 mins followed by [gamma-33P]-ATP addition and measured after 120 mins by Hotspot assay
# [16] = biological target: T2, Proto-oncogene tyrosine-protein kinase Src; experiment: Inhibition of human c-SRC using poly[Glu:Tyr] (4:1) as substrate preincubated for 20 mins followed by [gamma-33P]-ATP addition and measured after 120 mins by Hotspot assay
# [17] = system: HL-60; experiment: Growth inhibition of human HL60 cells harboring WT FLT3 at 10 uM after 72 hrs by CellTiter-Glo assay relative to control; assay type: functional; conditions: HL-60, 72 h, read-out: GI
# [18] = system: HuT78; experiment: Growth inhibition of human HUT78 cells at 10 uM after 72 hrs by CellTiter-Glo assay relative to control; assay type: functional; conditions: HuT78, 72 h, read-out: GI
# [19] = system: PBMC; experiment: Cytotoxicity against human PBMC at 1 uM after 72 hrs by MTT assay; assay type: cell-based
# [20] = system: MV4-11; experiment: Induction of apoptosis in human MV4-11 cells assessed as early apoptotic cells at 0.02 uM after 24 hrs by Annexin V-FITC/propidium iodide staining based flow cytometric analysis (reference value: 3.39%); assay type: functional
# [21] = system: MV4-11; experiment: Induction of apoptosis in human MV4-11 cells assessed as late apoptotic cells at 0.02 uM after 24 hrs by Annexin V-FITC/propidium iodide staining based flow cytometric analysis (reference value: 1.42%); assay type: functional
# [22] = system: MV4-11; experiment: Induction of apoptosis in human MV4-11 cells assessed as necrotic cells at 0.1 uM after 24 hrs by Annexin V-FITC/propidium iodide staining based flow cytometric analysis (reference value: 0%); assay type: functional
# [23] = system: MV4-11; experiment: Induction of apoptosis in human MV4-11 cells assessed as viable cells at 0.1 uM after 24 hrs by Annexin V-FITC/propidium iodide staining based flow cytometric analysis (reference value: 95.19%); assay type: functional; conditions: MV4-11, 24 h, read-out: Activity
# [24] = system: MV4-11; experiment: Induction of apoptosis in human MV4-11 cells assessed as necrotic cells at 0.2 uM after 24 hrs by Annexin V-FITC/propidium iodide staining based flow cytometric analysis (reference value: 0%); assay type: functional
# [25] = system: MV4-11; experiment: Induction of apoptosis in human MV4-11 cells assessed as late apoptotic cells at 0.5 uM after 24 hrs by Annexin V-FITC/propidium iodide staining based flow cytometric analysis (reference value: 1.42%); assay type: functional
# [26] = system: MV4-11; experiment: Induction of apoptosis in human MV4-11 cells assessed as necrotic cells at 0.5 uM after 24 hrs by Annexin V-FITC/propidium iodide staining based flow cytometric analysis (reference value: 0%); assay type: functional
# [27] = Intrinsic clearance in rat liver microsomes assessed per mg protein at 1 uM after 5 to 60 mins in presence of NADPH by LC-MS/MS analysis; assay type: ADME, Microsome; conditions: read-out: CLH
smiles,measurement,setting,value
CN1CCC(Nc2ccc(C(=O)Nc3cc(-c4cc(C#N)cs4)n[nH]3)cc2)CC1,Activity,[1],23%
same,Activity,[2],58.4%
same,Activity,[3],67.7%
same,Activity,[4],12.9%
same,Activity,[5],20.1%
same,Activity,[6],17.9%
same,Activity,[7],20.6%
same,Activity,[8],87.6%
same,Activity,[9],94.8%
same,Activity,[10],86.5%
same,Activity,[11],66.2%
same,Kd,[12],580 nM
same,Kd,[13],2.2 nM
same,IC50,[14],1010 nM
same,IC50,[15]; read-out: IC50,1640 nM
same,IC50,[15]; read-out: pIC50 (converted),1580 nM
same,IC50,[16],2400 nM
same,inhibition of growth at 10 µM,[17],10.2%
same,inhibition of growth at 10 µM,[18],3.9%
same,Activity,[19],Non-Toxic
same,Activity,[20],17.09%
same,Activity,[21],11.3%
same,Activity,[22],3%
same,viability at 0.1 µM,[23],56.8%
same,Activity,[24],4.1%
same,Activity,[25],26.68%
same,Activity,[26],4.89%
same,microsomal CLint at 1 µM,[27],171 µL/min/mg
